In PMC12238268, “The immunomodulatory p43 secreted protein of Trichuris whipworm parasites is a lipid carrier that binds signalling lipids and precursors” (Scientific Reports, 2025):

Tests used:
Format in all cases: binding
p43 (Tm-DLP-1) [1] = molecular target: T1, p43 (Tm-DLP-1) (Trichuris muris, UniProt A0A5S6QYG9); assay: fluorescence titration
T1 construct: native, purified from adult worm excretory/secretory medium by Ni-NTA (natural His-rich tail) and Superdex 75; signal peptide predicted cleaved between 17 and 18

p43 (Tm-DLP-1) [2] = molecular target: T1, p43 (Tm-DLP-1); assay: intrinsic fluorescence enhancement of ligand; conditions: PBS pH 7.2
p43 (Tm-DLP-1) [3] = molecular target: T1, p43 (Tm-DLP-1); assay: fluorescence enhancement and blue shift of probe; conditions: approximately 1 μM DACA; PBS pH 7.2

T1 sequence (A0A5S6QYG9 entry or part of it): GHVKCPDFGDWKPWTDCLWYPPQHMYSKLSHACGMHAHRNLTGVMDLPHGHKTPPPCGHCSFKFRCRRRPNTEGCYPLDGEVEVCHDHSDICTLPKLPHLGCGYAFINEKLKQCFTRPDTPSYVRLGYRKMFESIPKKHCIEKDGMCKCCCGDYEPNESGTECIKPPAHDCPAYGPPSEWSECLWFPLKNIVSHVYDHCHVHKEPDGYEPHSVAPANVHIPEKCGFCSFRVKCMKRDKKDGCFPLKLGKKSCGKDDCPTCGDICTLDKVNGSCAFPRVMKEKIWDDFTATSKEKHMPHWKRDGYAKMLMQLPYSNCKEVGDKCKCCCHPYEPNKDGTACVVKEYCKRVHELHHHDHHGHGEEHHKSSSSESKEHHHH

## CN(C)c1cccc2c(S(=O)(=O)NCCCCCCCCCCC(=O)O)cccc12 [DAUDA, 11-((5-dimethylaminonaphthalene-1-sulfonyl)amino)undecanoic]
p43 (Tm-DLP-1) [1]
  Kd: 350 nM

## CC\C=C/C=C/C=C/C=C\CCCCCCCC(=O)O [cis-parinaric acid]
p43 (Tm-DLP-1) [2]; approximately 4 μM cPnA
  intrinsic fluorescence enhancement of ligand: p43 bound cPnA strongly and was displaceable with oleic acid (Fig. 1C)

## CC1=C(/C=C/C(C)=C/C=C/C(C)=C/CO)C(C)(C)CCC1 [retinol]
p43 (Tm-DLP-1) [2]; approximately 1 μM retinol
  intrinsic fluorescence enhancement of ligand: p43 bound retinol, from which it was displaceable by oleic acid (Fig. 2A)

## CCCCCCC(NS(=O)(=O)c1cccc2c(N(C)C)cccc12)C(=O)O (stereo not shown) [dansyl aminocaprylic acid]
p43 (Tm-DLP-1) [3]
  fluorescence enhancement and blue shift of probe: essentially the same observations with another fluorescent probe, dansyl aminocaprylic acid (DACA)
